Data as given in patent US20050124683A1, “HIV protease inhibitors, compositions containing the same, their pharmaceutical uses and materials for their synthesis” (priority 2003, published 2005).
Where two headings read alike, the source gives them in different places.

Tests used:
HIV-1 protease = target: T1, HIV-1 protease (Human immunodeficiency virus type 1 group M subtype B, UniProt P04585, Q495S); test: HIV-1 Protease RET assay (Ki, resonance energy transfer); format: biochemical; details: Q7S mutant HIV-1 protease
T1 construct: made in house
Method: Ki's for the inhibitors of HIV-1 protease were determined using a resonance energy transfer (RET) assay. […] This enzyme is first partially purified as inclusion bodies from cell lysate. It is then solublized in 8M urea and passed through a Q-Sepharose column (Pharmacia) for further purification. To refold this protein, samples containing Q7S is dialyzed into 50 mM sodium phosphate pH 7.0, 50 mM NaCl, 10 mM DTT, and 10% glycerol.
The commercially available peptide substrate (Molecular Probes Cat. # H-2930) RE(EDANS)SQNYPIVQK(DABCYL)R is used to assess activity and Ki's. This peptide is cleaved quantitatively by HIV-1 Pr at the Tyr-Pro bond. The EDANS fluorophore absorbs at 340 nm and emits at 490 nm. The reaction is carried out in a 96 well plate in a total volume of 100 µL and is run for 12 minutes at 37C under steady-state conditions with 5 µM substrate and 2 nM active dimer enzyme concentration. The literature value Km for this substrate and enzyme is 103+/−8 μM (See Matayoshi, et al., “Novel Fluorogenic Substrates for Assaying Retroviral Proteases by Resonance Energy Transfer,” Science 247, 954 (1990)). The buffer for this reaction is 0.1M sodium acetate pH 4.8, 1M NaCl, 1 mM EDTA, 5 mM dithiothreitol, 10% dimethyl sulfoxide and 1 mg/ml bovine serum albumin. Inhibition curves are fit using the Morrison tight binding equation.

HIV-1 = test: Antiviral EC50 in HIV-infected T-cell lines (CPE inhibition / susceptibility assays); format: cell-based
Method: T-cell lines, CEM-SS, and MT-2, and viruses HIV-1 RF and HIV-1 NL4-3 (pNL4-3) were obtained from the National Institutes of Health (AIDS Research and Reference Reagent Program, Bethesda, MD).
The ability of compounds to protect cells against HIV infection was measured by the […] dye reduction method, essentially as described (See Pauwels, R. Balzarini, J. Baba, M. Snoeck, R. Schols, D. Herdewijn, P. Desmyter, J. and De Clercq, E. 1988, “Rapid and automated tetrazolium-based colorimetric assay for the detection of anti-HIV compounds,”. J Virol. Methods., 20: 309-321 and Weislow, O. S. Kiser, R. Fine, D. L. Bader, J. Shoemaker, R. H. and Boyd, M. R. 1989. “New soluble-formazan assay for HIV-1 cytopathic effects: application to high-flux screening of synthetic and natural products for AIDS-antiviral activity”. J. Natl. Cancer Inst. 81:577-586). Subject cells were infected with test virus at an moi of 0.025 to 0.819 or mock infected with medium only and added at 2×10^4 cells per well into 96 well plates containing half-log dilutions of test compounds. Six days later, 50 μl of XTT (1 mg/ml XTT tetrazolium, […] phenazine methosulfate) was added to the wells and the plate was reincubated for four hours. Viability, as determined by the amount of XTT formazan produced, was quantified spectrophotometrically by absorbance at 450 nm. Data from CPE assays were expressed as the percent of formazan produced in compound-treated cells compared to formazan produced in wells of uninfected, compound-free cells. The fifty percent effective concentration (EC50) was calculated as the concentration of compound that effected an increase in the percentage of formazan production in infected, compound-treated cells to 50% of that produced by uninfected, compound-free cells. The 50% cytotoxicity concentration (CC50) was calculated as the concentration of compound that decreased the percentage of formazan produced in uninfected, compound-treated cells to 50% of that produced in uninfected, compound-free cells. The therapeutic index was calculated by dividing the cytotoxicity (CC50) by the antiviral activity (EC50).
Compounds were tested in phenotypic susceptibility assays at Virologic, Inc., (See Petropoulos C. J., Parkin N. T., Limoli K. L., Lie Y. S., Wrin T., Huang W., Tian H., Smith D., Winslow G. A., Capon D J, Whitcomb J M. 2000, “A novel phenotypic drug susceptibility assay for human immunodeficiency virus type 1,” Antimicrob Agents Chemother 44(4):920-928) or using the assay described here. MT-2 cells were infected with either HIV-1 NL4-3 or HIV-1 NL4-3(I84V/L90M) and incubated in the presence of serial 0.5 log dilutions of test compounds. Three days later, culture supernatants were collected and virus production, as determined by p24 ELISA, was assayed. Percent inhibition was calculated as p24 concentration in compound-treated samples as compared to infected, compound-free controls. Inhibition of viral replication is determined by measuring reduction in HIV p24 present in the culture supernatant, using a Beckman-Coulter p24 HIV-1 Ag EIA kit and following the supplied protocol. Absorbance is read on a MRX microplate reader (Dynex Technologies). The EC50 was calculated as the concentration of compound that effected a decrease in the p24 production by infected, compound-treated cells to 50% of that produced by infected, compound-free cells.

[1] = Human immunodeficiency virus 1, T-cell, read-out: EC50 (wt) (nm), wt virus
[2] = Human immunodeficiency virus 1, T-cell, read-out: Ave. EC50, average, unit inferred

Row | SMILES | Ki (HIV-1 protease; read-out: Ki (nm)) | EC50 (HIV-1; [1]) | EC50 (HIV-1; read-out: EC50 (wt) (nm), wt virus) | Ki (HIV-1 protease; average, read-out: Ave. Ki) | EC50 (HIV-1; [2])
1 | Cc1cc(O)c(C)c(C(=O)N[C@@H](Cc2cccc(F)c2)[C@H](O)C(=O)N2CC(F)(F)C(C)(C)C2C(=O)NCC(C)C)c1 (some centres unmarked) | < 0.1 nM | 11 nM | – | – | –
2 | Cc1c(O)cccc1C(=O)N[C@@H](Cc1cccc(F)c1)[C@H](O)C(=O)N1CC(F)(F)C(C)(C)[C@H]1C(=O)NCC(C)(C)C [drawing 137] | < 0.1 nM | – | 8.8 nM | – | –
3 | CCCNC(=O)C1N(C(=O)[C@@H](O)[C@H](Cc2ccccc2)NC(=O)c2cc(C)cc(O)c2C)CC(F)(F)C1(C)C (some centres unmarked) | < 0.1 nM | 9 nM | – | – | –
4 | Cc1c(O)cccc1C(=O)N[C@@H](Cc1ccccc1)[C@H](O)C(=O)N1CC(O)C(C)(C)[C@H]1C(=O)NCC(C)C (some centres unmarked) | 0.7 nM | 450 nM | – | – | –
5 | COC1CN(C(=O)[C@@H](O)[C@H](Cc2ccccc2)NC(=O)c2cccc(O)c2C)[C@H](C(=O)NCc2ccccc2F)C1(C)C (some centres unmarked) | 0.34 nM | 1000 nM | – | – | –
6 | CCNC(=O)[C@H]1N(C(=O)[C@@H](O)[C@H](Cc2ccccc2)NC(=O)c2c(C)ccc(O)c2C)CC(F)(F)C1(C)C | < 0.1 nM | 35 nM | – | – | –
7 | Cc1c(O)cccc1C(=O)N[C@@H](Cc1cccc(F)c1)[C@H](O)C(=O)N1CC(F)(F)C(C)[C@H]1C(=O)NCC(F)(F)F (some centres unmarked) | < 0.1 nM | 10 nM | – | – | –
8 | Cc1ccccc1CNC(=O)[C@H]1N(C(=O)[C@@H](O)[C@H](Cc2cccc(F)c2)NC(=O)c2cccc(O)c2C)CC(F)(F)C1(C)C | < 0.1 nM | 17 nM | – | – | –
9 | C=CCNC(=O)[C@H]1N(C(=O)[C@@H](O)[C@H](Cc2ccccc2)NC(=O)c2cc(C)cc(O)c2C)CSC1(C)C [Example D12, (R)-3-[(2S,3S)-2-Hydroxy-3-(3-hydroxy-2,5-dimethyl-benzoylamino)-4-phenyl-butyryl]-5,5-dimethyl-thiazolidine-4-carboxylic acid allylamide] | – | – | – | 0.7 nM | 16 nM
10 | C=CCNC(=O)[C@H]1N(C(=O)[C@@H](O)[C@H](Cc2cccc(F)c2)NC(=O)c2cccc3c2CCN3)CC(F)(F)C1(C)C | < 0.1 nM | 35 nM | – | – | –
11 | CCCCNC(=O)[C@H]1N(C(=O)[C@@H](O)[C@H](Cc2ccccc2)NC(=O)c2cc(C)cc(O)c2C)CC(F)(F)C1(C)C | < 0.1 nM | 23 nM | – | – | –
12 | Cc1c(O)cccc1C(=O)N[C@@H](Cc1cccc(F)c1)[C@H](O)C(=O)N1CC(F)(F)C(C)(C)C1C(=O)NCC(C)C (some centres unmarked) | < 0.1 nM | 13 nM | – | – | –
13 | CC[C@H](C)CNC(=O)[C@H]1N(C(=O)[C@@H](O)[C@H](Cc2ccccc2)NC(=O)c2cccc(O)c2C)CC(F)(F)C1(C)C [drawing 143] | < 0.1 nM | 11 nM | – | – | –
14 | CCCNC(=O)[C@H]1N(C(=O)[C@@H](O)[C@H](Cc2cccc(F)c2)NC(=O)c2cc(C)cc(O)c2C)CC(F)(F)C1(C)C | < 0.1 nM | 14 nM | – | – | –
15 | Cc1cnccc1CNC(=O)C1N(C(=O)[C@@H](O)[C@H](Cc2ccccc2)NC(=O)c2cccc(O)c2C)CC(F)(F)C1(C)C (some centres unmarked) | < 0.1 nM | 8 nM | – | – | –
16 | Cc1ccccc1CNC(=O)[C@H]1N(C(=O)[C@@H](O)[C@H](Cc2ccccc2)NC(=O)c2cccc(O)c2C)CC(O)C1(C)C (some centres unmarked) | < 0.1 nM | 140 nM | – | – | –
17 | Cc1cc(O)c(C)c(C(=O)N[C@@H](Cc2ccccc2)[C@H](O)C(=O)N2CC(C)(O)C(C)(C)[C@H]2C(=O)NCc2ccccc2C)c1 (some centres unmarked) | < 0.1 nM | 12 nM | – | – | –
18 | C=CCNC(=O)[C@H]1N(C(=O)[C@@H](O)[C@H](Cc2ccccc2)NC(=O)c2cccc(O)c2C)CC(O)C1(C)C (some centres unmarked) | 3.6 nM | 470 nM | – | – | –
19 | Cc1ccccc1CNC(=O)[C@H]1N(C(=O)[C@@H](O)[C@H](Cc2ccccc2)NC(=O)c2cccc(O)c2C)CC(C)(O)C1(C)C (some centres unmarked) | < 0.1 nM | 33 nM | – | – | –
20 | Cc1cc(O)c(C)c(C(=O)N[C@@H](Cc2ccccc2)[C@H](O)C(=O)N2CC(F)(F)C(C)(C)[C@H]2C(=O)NCc2ccccn2)c1 | < 0.1 nM | 61 nM | – | – | –
21 | CCCNC(=O)[C@H]1N(C(=O)[C@@H](O)[C@H](Cc2ccccc2)NC(=O)c2c(C)ccc(O)c2C)CC(F)(F)C1(C)C | < 0.1 nM | 33 nM | – | – | –
22 | CC[C@@H](COC)NC(=O)[C@H]1N(C(=O)[C@@H](O)[C@H](Cc2ccccc2)NC(=O)c2cc(C)cc(O)c2C)CC(F)(F)C1(C)C | < 0.1 nM | 30 nM | – | – | –
23 | Cc1c(O)cccc1C(=O)N[C@@H](Cc1ccccc1)[C@H](O)C(=O)N1CC(F)(F)C(C)(C)[C@H]1C(=O)NCc1ccncc1 | < 0.1 nM | 130 nM | – | – | –
24 | C=CCNC(=O)[C@H]1N(C(=O)[C@@H](O)[C@H](Cc2ccccc2)NC(=O)c2cc(C)cc(O)c2C)CC(F)(F)C1(C)C [Example D13, (S)-4,4-Difluoro-1-[(2S,3S)-2-hydroxy-3-(3-hydroxy-2,5-dimethyl-benzoylamino)-4-phenyl-butyryl]-3,3-dimethyl-pyrrolidine-2-carboxylic acid allylamide] | – | – | – | < 0.1 nM | 17 nM
25 | CCNC(=O)[C@H]1N(C(=O)[C@@H](O)[C@H](Cc2ccccc2)NC(=O)c2cc(C)cc(O)c2C)CC(F)(F)C1(C)C [Example D17, (S)-4,4-Difluoro-1-[(2S,3S)-2-hydroxy-3-(3-hydroxy-2,5-dimethyl-benzoylamino)-4-phenyl-butyryl]-3,3-dimethyl-pyrrolidine-2-carboxylic acid ethylamide] | – | – | – | < 0.1 nM | 66 nM
26 | Cc1cc(O)c(C)c(C(=O)N[C@@H](Cc2ccccc2)[C@H](O)C(=O)N2CC(F)(F)C(C)(C)[C@H]2C(=O)NCc2ccncc2)c1 | 0.26 nM | 110 nM | – | – | –
27 | Cc1cc(O)c(C)c(C(=O)N[C@@H](Cc2ccccc2)[C@H](O)C(=O)N2CC(F)(F)C(C)(C)[C@H]2C(=O)NCC(F)(F)F)c1 [drawing 119] | < 0.1 nM | 18 nM | – | – | –
28 | CCCCNC(=O)[C@H]1N(C(=O)[C@@H](O)[C@H](Cc2cccc(F)c2)NC(=O)c2cccc(O)c2C)CC(F)(F)C1(C)C | < 0.1 nM | 32 nM | – | – | –
